“Also recorded” adds a separate entry of the source.
Assays:
[1] = system: FGF21 signaling in Huh7 cells; experiment: Huh7 cells infected/transfected with miR-22 or miR-22 inhibitors, mRNA and Western blot; assay type: cell-based, human
Source text: However, miR-22 was induced in the livers and adipose tissues of WD-fed mice (FIG. 15B). Similarly, using human liver biopsy specimens, miR-22 levels were positively associated with hepatic fat content and inversely correlated with the mRNA levels of PGC-1α, a key regulator of mitochondrial biogenesis (FIG. 15C). […] To study the downstream effects of miR-22, miR-22 mimics (ID: MIMAT0000077, […] (SEQ ID NO:2), Applied Biological Materials Inc.) were used to transfect human liver Huh7 cells.
(§1) Cell culture: Huh7 cells were obtained from Japanese Collection of Research Bioresources and maintained in DMEM with 10% FBS. Cells were treated with DMSO, OCA (5 or 20 μM; Apexbio Technology LLC, Houston, Tex., USA) in serum-free media for indicated time. Cells were plated (1×10^6 cells per 60-mm dish, 2×10^5 cells per 6-well plates, and 1×10^5 cells per 24-well plates) overnight prior to treatment or infection.
(§2) Constructs and luciferase reporter assay: The 3′ untranslated region (3′-UTR) of the FGFR1 gene containing the putative binding site for miR-22 and the entire 3′-UTR of the FGF21 gene (105 bp) was cloned into the psiCHECK2 vector (Promega, Madison, Wis., USA) using NotI and XhoI. For cell infection, adenovirus (negative control), adenoviral-delivered miR-22 (miR-22), or adenoviral-miR-22 inhibitors (SEQ ID NO:1; Applied Biological Materials Inc., Richmond, BC) were used. Forty-eight h post infection, cells were transfected with psiCHECK2-FGR1-3′UTR or psiCHECK2-FGF21 3′UTR using Lipofectamine 2000 (Thermo Fisher Scientific). Twenty-four h later, cells were harvested for firefly and Renilla luciferase assay using the Dual-luciferase Reporter system (Promega). Renilla luciferase activity was standardized to firefly luciferase activity.
(§3) Western blot: Western blot was performed as described previously (26). Antibodies used were anti-FGFR1, FGF21, FASN, phosphor (P)-AMPK, total (T)-AMPK, phosphor (P)-ERK1/2, and total (T)-ERK1/2 (Cell Signaling Technology, Beverly, Mass., USA), β-ACTIN (MilliporeSigma), CD36 (Bioss Antibodies Inc., Woburn, Mass., USA), CYCLIN A2, PGC1α (Novus Biologicals, LLC, Littleton, Colo., USA), and PPARα (Santa Cruz Biotechnology, Santa Cruz, Calif., USA).

[2] = system: PPREs in the regulatory region of FGF21; experiment: ChIP-qPCR of PPARα and PGC1α occupancy in Huh7 cells; assay type: cell-based, human; conditions: miR-22 overexpression
Experimental: Chromatin immunoprecipitation (ChIP)-qPCR: ChIP-qPCR was performed based on a previous publication (27). Briefly, chromatin lysate was precleared before incubation with anti-PGC1α (Novus Biologicals) and anti-PPARα (Santa Cruz Biotechnology). IgG (Santa Cruz Biotechnology) and RNA Polymerase II antibody (MilliporeSigma) was used as negative and positive control, respectively. Samples were incubated with Dynase beads at 4° C. overnight followed by de-crosslinking and purification. DNA fragments generated served as templates for qPCR using Power SYBR Green PCR Master Mix.

3′UTR of FGFR1 = experiment: Luciferase reporter assay, psiCHECK2-FGFR1 3′UTR in Huh7 cells; assay type: cell-based, human; conditions: 48 h infection then reporter transfection
Source text: as §2

[3] = system: HDAC1, HDAC4 and CYCLIN A2 in Huh7 and HCT116 cells; experiment: Deacetylase protein levels after miR-22 in Huh7 and HCT116 cells; assay type: cell-based, human
3′UTR of FGF21 = experiment: Luciferase reporter assay, psiCHECK2-FGF21 3′UTR in Huh7 cells; assay type: cell-based, human; conditions: 48 h infection then reporter transfection
Source text: as §2

[4] = system: mice after 2/3 liver resection; experiment: 2/3 liver resection in mice given miR-22 inhibitors or mimics; assay type: in vivo, mouse; conditions: compared to other groups
Experimental: The data presented in FIGS. 38 and 39 further support the usefulness of miR-22 inhibition. For the experiments used to generate the data in FIG. 38, mice received miR-22 inhibitors or miR-22 mimics via tail vein injection 3 days prior to 2/3 liver resection (1×10^9 pfu in 100 μL saline, one injection per day). Mice were killed on day 0 (immediately after liver resection) or 2 days later.

[5] = system: Western diet-induced steatosis in C57BL/6 mice; experiment: Pilot study in Western diet-fed mice, tail vein adenoviral miR-22 mimics or inhibitors; assay type: in vivo, mouse
Experimental: Wild type C57BL/6 mice were fed with a high fat and high sucrose (21.2% fat, 34% sucrose, and 0.2% cholesterol) Western diet (WD) since weaning (3 weeks). When mice were 2.5 months old, they received adenoviral-delivery of miR-22 mimics or miR-22 inhibitors (i.e., SEQ ID NO:1) via tail vein injection (1×10^9 PFU/100 μl saline, 3 doses in 10 days). […] In addition, hepatic Pgc1α mRNA level was reduced by miR-22 mimics, but increased by miR-22 inhibitors (FIG. 10).
To further analyze the role miR-22 in regulating hepatic metabolism, we have done pilot studies to test the effect of miR-22 in non-alcoholic and alcoholic steatohepatitis. Steatosis was induced by feeding mice with a WD that has high fat and high sucrose content since weaning (3-weeks old). After 2 months of differential diet feeding, mild steatosis was found in WD-fed mice. Then, those WD-fed mice received adenoviral-control, adenoviral-delivered miR-22 mimics, or miR-22 inhibitors (i.e., SEQ ID NO:1) via tail vein injection (1×10^9 pfu/200 μl, 3 doses, weekly) while continuing a WD. […] These exciting findings indicate that forced miR-22 expression in WD-fed mice potentially can be a novel NASH model.

[6] = system: alcohol-induced steatosis in C57BL/6 mice; experiment: Alcohol-induced steatosis in mice treated with adenoviral miR-22 inhibitors; assay type: in vivo, mouse; conditions: FIG. 29E
Source text: We performed another pilot experiment to test the effect of miR-22 inhibitors in reducing alcohol-induced steatosis. The same method described above for FIG. 2C was used to induce steatosis followed by miR-22 inhibitor treatment through tail vein injection.
Additionally, alcohol was used to induce fatty liver. Mice were on Liber DeCarli liquid diet supplemented with 5% alcohol for 3 weeks followed by delivery of adenoviral-control and adenoviral-miR-22 inhibitors using the same methods described above. During the interventions, mice continued having alcohol-supplemented liquid diet.
3-month old WT male mice were fed with Liber DeCarli diet with 5% alcohol supplementation for 3 weeks followed by adenovirus delivery of miR-22 inhibitor (1×10^9PFU) through tail vein injection (3 times in 10 days). The empty adenovirus was used as a negative control. The mice were killed 1 day after the last injection. Steatosis scored was graded on a scale of a scale of 0 (<5%), 1 (5-33%), 2 (34-66%), and 3 (>66%). […]
Biochemical analysis: Hepatic triglyceride and cholesterol (BioAssay Systems, Hayward, Calif., USA) levels and serum lipopolysaccharide (LPS) (Thermo Fisher Scientific), alanine transaminase (ALT) (Pointe Scientific), and alkaline phosphatase (ALP) (Pointe Scientific) levels were quantified according to the manufacturer's instructions.

miR-22 in HCT116 cells [7] = experiment: miR-22 induction in HCT116 cells treated with bile acids or HDAC inhibitors; assay type: cell-based, human; conditions: CDCA 150 μM
Experimental: A time course study in which HCT116 cells were treated by 150 μM CDCA for indicated times. […] Data are presented as mean+/−S.D. * denotes p<0.05.
Data are shown as mean+/−S.D. * p<0.05; ** p<0.01; ***p<0.001.
OCA is a semi-synthetic bile acid, which as the structure of 6α-ethyl-chenodeoxycholic acid.

[8] = system: FGF21 signaling and miR-22 in Huh7 cells; experiment: mRNA and protein levels in Huh7 cells treated with OCA/INT-747, CDCA, butyrate or RA plus butyrate; assay type: cell-based, human; conditions: CDCA 150 μM
Experimental: as §1
Gene expression quantification: Total RNA was extracted using TRIzol Reagent (Thermo Fisher Scientific, Waltham, Mass., USA), and cDNA was generated using High Capacity RNA-to-cDNA Kit (Applied Biosysterms, Carlsbad, Calif., USA). qRT-PCR was performed on ABI 7900HT Fast Real-time PCR system using Power SYBR® Green PCR Master Mix (Applied Biosysterms).
as §3

miR-22 = conditions: published data; cited from earlier work
miR-22 in HCT116 cells [9] = experiment: miR-22 induction in HCT116 cells treated with bile acids or HDAC inhibitors; assay type: cell-based, human; conditions: 24 hours, CDCA 50, 100, 150 μM, OCA 25 and 50 μM
[10] = WD-fed C57BL/6 mice 2.5 months old, tail vein 1×10^9 PFU/100 μl, 3 doses in 10 days

Compound	expression of βKlotho [1]	total AMPK [1]	PPARα and PGC1α protein levels ([1]; 48 h post infection)	AMPK and ERK1/2 activation (P-AMPK, P-ERK1/2) ([1]; miR-22 overexpression)	FGF21 and FGFR1 (SIRT1, p-AMPK) levels ([1]; miR-22 overexpression)	FGF21 and FGFR1 (SIRT1, p-AMPK) levels ([1]; miR-22 overexpression, listed as miR-22)	occupancy of PPARα and PGC1α in the two PPREs of FGF21 [2]	luciferase activity driven by FGFR1 3′UTR (3′UTR of FGFR1)	protein level of HDAC1, HDAC4 and CYCLIN A2 [3]	luciferase activity driven by FGF21 3′UTR (3′UTR of FGF21)	liver-to-body weight ratio and fat-to-body weight ratio [4]	hepatic Pgc1α mRNA level [5, 10]	hepatic lymphocyte infiltration [5, 10]	severity of steatosis / hepatic fat content [5, 10]	liver histology (hepatic fat content, lymphocyte infiltration) ([5]; WD-fed mice after 2 months of diet, tail vein 1×10^9 pfu/200 μl, 3 doses, weekly)	hepatic gene expression (PGC1α, CPT1, SREBP-1c, FASN, TNFα) [6]	FGF21 and miR-22 levels (miR-22 in HCT116 cells [7])	FGF21 and miR-22 levels [8]	miR-22 induction (miR-22)	miR-22 level (miR-22 in HCT116 cells [9])
miR-22 mimics: miR-22 mimics (ID: MIMAT0000077, AAGCUGCCAGUUGAAGAACUGU, SEQ ID NO:2), transfected or adenoviral-delivered (chemistry not given here; listed as Homo sapiens)	did not affect the expression of βKlotho	had no effect on total AMPK	reduced PPARα and PGC1α	AMPK and ERK1/2 deactivation	reduced the protein level of FGF21, FGFR1 and p-AMPK; also recorded: reduced the protein level of FGF21, FGFR1, and SIRT1	reduced FGF21 and FGFR1 at both mRNA and protein levels	substantially reduced	decreased the luciferase activity	reduced the protein level of HDAC1 and HDAC4 as well as CYCLIN A2	neither miR-22 nor miR-22 inhibitors changed the luciferase activity	substantially higher	reduced	induced hepatic lymphocyte infiltration	increased the severity of steatosis	increased hepatic fat content and lymphocyte infiltration	reduced PGC1α and CPT1, but increased SREBP-1c, FASN, and TNFα	–	–	–	–
C[C@H](CCC(=O)O)[C@H]1CC[C@H]2[C@@H]3[C@H](O)C[C@@H]4C[C@H](O)CC[C@]4(C)[C@H]3CC[C@]12C [CDCA, chenodeoxycholic acid]	–	–	–	–	–	–	–	–	–	–	–	–	–	–	–	–	induced FGF21 and miR-22 levels	induced FGF21 and miR-22 levels	induced	induced miR-22
